Data reported in US9585871B2, “Method for treating and curing leishmaniosis using fexinidazole” (Merial Limited, priority 2013, dated 2017).
“And” between values parts separate entries of the source, which are not always exact repeats. Equal entries are not always repeated. “Also recorded” adds a separate entry of the source.

What was measured:
chromosome damage = assay: Chromosome damage in vitro or in vivo
Source text: Toxicology summary. In mice and rats, the maximum fexinidazole (FEX) dose after oral administration is 10 g/kg of body weight. […] Finally, as regards PK, labeled FEX and its metabolites were excreted within 3 days in the feces (52-58%) and urine (36-40%).

L. infantum [1] = assay: Clinical study in dogs infected with L. infantum: Clinical Score; format: in vivo; design: key: additive score of clinical signs (body condition, lymphadenopathy, etc.); conditions: Glucantime 100 mg/kg dNMA SC or Fexinidazole 60 mg/kg PO once daily Days 0-27
Protocol: (§1) In a clinical study, dogs infected with L. infantum were treated with meglumine antimoniate (GLUCANTIME®, Merial) as a positive control, or FEX (Table 5). Eight blocks of two animals were formed based antibody titers and biological scores. Six dogs in each group were naturally infected by housing them in an endemic area for two years and two dogs in each group were artificially infected by intravenous administration of a known quantity of parasites recovered from the spleen of an infected dog.
(§2) The first group (FEX) was compared to the second group, which was treated with 27 mg/kg GLUCANTIME (meglumine antimoniate, or 100 mg/kg of dNMA) “GLU”), over 28 days.
(§3) Variables. The Clinical Score is an additive score of various clinical signs (body condition, lymphadenopathy, splenomegaly, appetite, behavior, mucous membrane color, dermatopathology, ocular signs, digestive signs, arthropathy) evaluated before treatment and on Days 7, 14, 21, 28, 57, 184, 219, 254, 282, 310, 345, 400 and 436. The Overall Biological Score is an additive score based on the severity of changes in hematology/chemistry values (creatinine, urine protein/creatinine, Hct, globulin, ALAT), evaluated pretreatment and on Days 28, 57, and 181. The L. infantum immunofluorescent antibody titers (IFAT) were determined from samples collected before treatment and on Days 28, 57, and 181. Finally, quantitative PCR (qPCR) for L. infantum was conducted on spleen aspirates collected before treatment and on Days 28, 57, 142, 184, and 373.

L. infantum [2] = assay: Clinical study in dogs infected with L. infantum: Overall Biological Score; format: in vivo; design: key: additive score of severity of hematology/chemistry changes; conditions: Glucantime 100 mg/kg dNMA SC or Fexinidazole 60 mg/kg PO once daily Days 0-27
Protocol: as §1, §2, §3

L. infantum [3] = assay: Clinical study in dogs infected with L. infantum: IFAT antibody titers; format: in vivo; conditions: Glucantime 100 mg/kg dNMA SC or Fexinidazole 60 mg/kg PO once daily Days 0-27
Protocol: as §1, §2, §3

L. infantum [4] = assay: Clinical study in dogs infected with L. infantum: qPCR on spleen aspirates; format: in vivo; conditions: spleen aspirate, Glucantime 100 mg/kg dNMA SC or Fexinidazole 60 mg/kg PO once daily Days 0-27
Protocol: as §1, §2, §3

L. infantum [5] = assay: Clinical study in dogs infected with L. infantum: overall outcome (cure, relapse, removal of animals); format: in vivo; conditions: canines, L. infantum
Protocol: as §1
The first group (FEX) was compared to the second group, which was treated with 27 mg/kg GLUCANTIME (meglumine antimoniate, or 100 mg/kg of dNMA) “GLU”), over 28 days. […]

With `CSc1ccc(OCc2ncc([N+](=O)[O-])n2C)cc1` [Fexinidazole, fexinidazole] the chromosome damage (chromosome damage) was “does not induce chromosome damage”, the “Clinical Score, group average” value (L. infantum [1]; Day 7) was 2.8 and the “Clinical Score” value (L. infantum [1]; Day 14, individual dogs) was 2 (2×) and 0 (2×) and 3 (3×). For the same compound, the “Clinical Score, group average” value (L. infantum [1]; Day 14) was 1.6, the “Clinical Score” value (L. infantum [1]; Day 21, individual dogs) was 0 (5×) and 2 (2×) and the “Clinical Score, group average” value (L. infantum [1]; Day 21) was 0.5. The “Clinical Score” value (L. infantum [1]; Day 28, individual dogs) was 0 (4×) and 1 (2×) and 2, the “Clinical Score, group average” value (L. infantum [1]; Day 28, Group 1 includes D21 data of Block 3 dog carried forward) was 0.5 and the “Clinical Score” value (L. infantum [1]; Day 57, individual dogs) was 2 (3×) and 0 (4×). The “Clinical Score, group average” value (L. infantum [1]; Day 57, Group 1 includes D21 data of Block 3 dog carried forward) was 0.8, the “Clinical Score” value (L. infantum [1]; Day 184, individual dogs) was 0 and the “Clinical Score, group average” value (L. infantum [1]; Day 184) was 0.1. The “Clinical Score” value (L. infantum [1]; Day 219, individual dogs) was 0 (6×) and 1, the “Clinical Score, group average” value (L. infantum [1]; Day 219) was 0.1 and the “Clinical Score” value (L. infantum [1]; Day 254, individual dogs) was 0 (7×) and 4. The “Clinical Score, group average” value (L. infantum [1]; Day 254) was 0.5, the “Clinical Score” value (L. infantum [1]; Day 282, individual dogs) was 0 (7×) and 2 and the “Clinical Score, group average” value (L. infantum [1]; Day 282) was 0.3. The “Clinical Score” value (L. infantum [1]; Day 310, individual dogs) was 0 (6×) and 2, the “Clinical Score, group average” value (L. infantum [1]; Day 310) was 0.3 and the “Clinical Score” value (L. infantum [1]; Day 345, individual dogs) was 0 (6×) and 2. The “Clinical Score, group average” value (L. infantum [1]; Day 345) was 0.3, the “Clinical Score” value (L. infantum [1]; Day 400, individual dogs) was 0 (5×) and 1 and 2 and the “Clinical Score, group average” value (L. infantum [1]; Day 400) was 0.4. For the same compound, the “Clinical Score, group average” value (L. infantum [1]; Day 436) was 0.4, the “Clinical Score, group average” value (L. infantum [1]; Day −7 (before treatment)) was 2.4 and the “Overall Biological Score” value (L. infantum [2]; Day 28, individual dogs) was 3 (2×) and 2 (2×) and 1 (2×) and 0 (2×). For the same compound, the “Overall Biological Score, group average” value (L. infantum [2]; Day 28) was 1.5, the “Overall Biological Score” value (L. infantum [2]; Day 57, individual dogs) was 2 (3×) and 0 (3×) and 3 (2×) and the “Overall Biological Score, group average” value (L. infantum [2]; Day 57, Group 1 includes D28 data of Block 3 dog carried forward) was 1.5. The “Overall Biological Score” value (L. infantum [2]; Day 181, individual dogs) was 0 (5×) and 1 (2×) and 3, the “Overall Biological Score, group average” value (L. infantum [2]; Day 181, Group 1 includes D28 data of Block 3 dog carried forward) was 0.6 and the “Overall Biological Score” value (L. infantum [2]; Day −14 (pretreatment), individual dogs) was 4 and 7 and 5 (2×) and 2 and 3 and 1 and 0. The “Overall Biological Score, group average” value (L. infantum [2]; Day −14 (pretreatment)) was 3.4, the “L. infantum IFAT Antibody Titers” value (L. infantum [3]; Day 28, individual dogs) was 1/80 and the “L. infantum IFAT Antibody Titers” value (L. infantum [3]; Day 57, individual dogs) was 1/640 (2×) and 1/320 and 1/80. For the same compound, the “L. infantum IFAT Antibody Titers” value (L. infantum [3]; Day 181, individual dogs) was 1/640 (2×) and 1/320 and 1/80, the “qPCR for L. infantum” value (L. infantum [4]; Day 28, individual dogs) was “BLOQ (BLOQ = Below Level of Quantification = < log 3.64 copies/mL spleen aspirate)” and the “qPCR for L. infantum” value (L. infantum [4]; Day 57, individual dogs) was “BLOQ (BLOQ = Below Level of Quantification = < log 3.64 copies/mL spleen aspirate)”. The “qPCR for L. infantum” value (L. infantum [4]; Day 142, individual dogs) was “BLOQ (BLOQ = Below Level of Quantification = < log 3.64 copies/mL spleen aspirate)”, the “qPCR for L. infantum” value (L. infantum [4]; Day 184, individual dogs) was “BLOQ (BLOQ = Below Level of Quantification = < log 3.64 copies/mL spleen aspirate)” and the “qPCR for L. infantum” value (L. infantum [4]; Day 373, individual dogs) was “BLOQ (BLOQ = Below Level of Quantification = < log 3.64 copies/mL spleen aspirate) (7×) and 3.82 log copies/mL”. For the same compound, the “qPCR for L. infantum” value (L. infantum [4]; Day −7 (before treatment), individual dogs) was 7.19 log copies/mL and 7.11 log copies/mL and 5.21 log copies/mL and 5.57 log copies/mL and 6.58 log copies/mL and 5.81 log copies/mL and 6.01 log copies/mL and BLOQ (BLOQ = Below Level of Quantification = < log 3.64 copies/mL spleen aspirate), the relapse (L. infantum [5]; 180 days after treatment initiation) was “No relapse was observed” and the “cure of Leishmania infection” value (L. infantum [5]; oral 60 mg/kg/day for 28 days, qPCR-confirmed, 60 mg/kg/day) was “can substantially or completely eliminate or cure L. infantum infection in canines; also recorded: sufficient to cure canines of leishmania parasites; also recorded: complete curing efficacy”.
